Data: patent US7601512B2, “Methods for identifying inhibitors of the 20S and 26S proteasome” (Bayer CropScience AG, priority 2002, dated 2009)
In brackets after ≈: the same amount, converted by molar mass. *1 amine or outer side, *2 acyl side, *3 side chain or, on linkers, in order; H or OH if unused. Where a SMILES comes first, the peptide text is derived from it. [ ]: non-standard residue; d: D form. The star is where a group is joined. AMC = Cc1cc(=O)oc2cc(N*)ccc12; Suc = O=C(CCC(=O)[*:2])[*:1]; Nva = CCC[C@H](N)C(=O)O; Cbz = O=C(OCc1ccccc1)*

What was measured:
[1] = tested on: Botrytis cinerea (BOTRCI); test: agar diffusion assay (fungicidal action, MIC); format: cell-based
[2] = tested on: Fusarium culmorum (FUSACU); test: agar diffusion assay (fungicidal action, MIC); format: cell-based
[3] = tested on: Pseudocercosporella herpotrichoides (PSDCHW); test: agar diffusion assay (fungicidal action, MIC); format: cell-based; details: PSDCHR
[4] = tested on: Pyricularia orycae (PYRIOR); test: microbe, parasite or virus in culture; format: cell-based
[5] = tested on: Rhizoctonia solani (RHIZSO); test: agar diffusion assay (fungicidal action, MIC); format: cell-based
Ustilago maydis (USTIMA) = test: agar diffusion assay (fungicidal action, MIC); format: cell-based
20S proteasome [6] = test: 20S proteasome activity/inhibition assay with Suc-LLVY-AMC (AMC fluorescence); format: biochemical, yeast; Ustilago maydis; details: 40 nM MG-132, FIGS. 1 and 2
Procedure: FIG. 1 is an activity assay for the 20S proteasome from yeast. The substrate used for the chymotryptic activity was Suc-LLVY-AMC (SEQ. ID. NO. 1). Liberation of AMC was determined fluorometrically as a function of time. The proteasome activity was determined in a 1:100 dilution of a yeast extract in the presence of 40 nM MG132 and in the absence of MG-132. As a negative control, the reaction was carried out without enzyme (buffer).
FIG. 2 is an activity assay for the 20S proteasome from Ustilago maydis. The substrate used for the chymotryptic activity was Suc-LLVY-AMC (SEQ. ID. NO. 1). Liberation of AMC was determined fluorometrically as a function of time. The proteasome activity was determined in a 1:100 and 1:20 dilution of a U. maydis preparation. […]
The proteolytic activity measurable in this way can be influenced by an inhibitor such as, for example, MG-132, resulting in a lower relative fluorescence being observed (FIGS. 1 and 2). […]
The activity and inhibition assay which makes use of the known inhibitor MG-132 from Calbiochem and which is intended to check the usability of the method of the invention was carried out in 384-well MTPs (microtitre plates with 384 wells). […] The preliminary measurement (fluorescence) was carried out at 360/465 nm (35 nm bandwidth). […] The fluorescence was measured again at 360/465 nm (35 nm bandwidth).

S. cerevisiae = details: 30° C., Lee and Goldberg (1998); cited from earlier work
[7] = cited from earlier work
20S proteasome [8] = details: read-out: KM for Suc-LLVY-AMC; approx. 70 ng proteasomes per reaction, Lineweaver-Burke
Procedure: A constant amount of proteasomes (approx. 70 ng per reaction) was incubated with increasing amounts of substrate and the increase in fluorescence was then determined over a period of 5 minutes. The slopes of the curve (dotted line) were determined by calculating trend lines.

## CCC[C@@H](C=O)NC(=O)[C@H](CC(C)C)NC(=O)[C@H](CC(C)C)NC(=O)OCc1ccccc1 [Example 1, Carbobenzoxy-L-leucyl-L-leucyl-L-norvalinal] (Cbz-Leu-Leu-[Nva]-aldehyde)
[1]; Botrytis cinerea, read-out: MIC (minimum inhibitory concentration)
  MIC: 58.6 µg/mL (≈ 127 µM)
[2]; Fusarium culmorum, FUSACU, agar diffusion assay, read-out: MIC (minimum inhibitory concentration)
  MIC: > 1000 µg/mL
[3]; Oculimacula yallundae, read-out: MIC (minimum inhibitory concentration)
  MIC: > 1000 µg/mL
[4]; Pyricularia, read-out: MIC (minimum inhibitory concentration)
  MIC: 2 µg/mL (≈ 4.33 µM)
[5]; Rhizoctonia solani, read-out: MIC (minimum inhibitory concentration)
  MIC: > 1000 µg/mL
Ustilago maydis (USTIMA); Mycosarcoma maydis, read-out: MIC (minimum inhibitory concentration)
  MIC: 750 µg/mL (≈ 1620 µM)

## CC(C)C[C@@H](C=O)NC(=O)[C@H](CC(C)C)NC(=O)[C@H](CC(C)C)NC(=O)OCc1ccccc1 [MG-132, Z-Leu-Leu-Leu-CHO] (Cbz-Leu-Leu-Leu-aldehyde)
20S proteasome [6]
  relative fluorescence (proteasome activity) in presence of inhibitor: markedly reduces the relative fluorescence
S. cerevisiae
  effect on the growth rate of yeast cells: only a minimum effect, if any

## Aprotinin [Example 2]
[1]
  MIC (minimum inhibitory concentration): 339.3 ppm
[2]
  MIC (minimum inhibitory concentration): >1000 ppm
[3]
  MIC (minimum inhibitory concentration): >1000 ppm
[4]; PYRIOR, agar diffusion assay
  MIC (minimum inhibitory concentration): 18.0 ppm
[5]
  MIC (minimum inhibitory concentration): >1000 ppm
Ustilago maydis (USTIMA)
  MIC (minimum inhibitory concentration): 750 ppm

## Suc-Leu-Leu-Val-Tyr-AMC (Suc-LLVY-{AMC}; SMILES Cc1cc(=O)oc2cc(NC(=O)[C@H](Cc3ccc(O)cc3)NC(=O)[C@@H](NC(=O)[C@H](CC(C)C)NC(=O)[C@H](CC(C)C)NC(=O)CCC(=O)O)C(C)C)ccc12) [Suc-LLVY-AMC]
[7]
  solubility in DMSO: 50 mg/mL
20S proteasome [8]
  Km: 5 µM
